The test system of this assay is primordial-to-primary follicle transition. Kind of assay: In vitro organ culture of mouse ovaries with compound, H&E histology and counting of primordial, primary and secondary follicles. The following applies: marked (ongoing). How it is done: Ovaries obtained from mice were washed twice with culture medium. Antagonists or agonists to be tested were dissolved in suitable solvents and added to the medium. As a control medium comprising solvent without the antagonist or agonist was used. One of the ovaries was cultured in a control medium and another was cultured with the antagonist or agonist. The tested antagonists or agonists and their concentrations are outlined in table 2.
Ovaries were incubated with antagonist at 37° C. and 5% CO2 for 24 and 96 hours, respectively (see table 3).
Cultures ovaries were fixed, embedded in paraffin and sliced microscopy. The sectioned ovaries were stained with hematoxylin and eosin (H&E) to visualize the morphology of the ovary by microscopy.
The number of primordial, primary and secondary follicles was determined, and it was determined whether the antagonist or agonist was capable of regulating folliculogenesis.
C57BL/6j×CBA F1 hybrid mice (Janvier Labs, France) were housed and bred in the animal facilities at Department of Biomedicine, Aarhus University. Animals were housed in a 12:12 h controlled light-dark environment and were provided with food and water ad libitum. 7-day-old female pups were used for the study.
Pups were sacrificed and ovaries were excised. Using a stereomicroscope MZ75 (Leica Microsystems, Germany), excess tissue was removed. During the dissection, ovaries were kept at 37° C. in culture medium: aMEM (Thermo Fisher) supplemented with 10% FBS (Thermo Fisher), 100 mIU/mL of FSH (Sigma-Aldrich), 100 IU/mL penicillin (Thermo Fisher), 100 μg/mL streptomycin (Thermo Fisher) and 1% Insulin-Transferrin-Selenium (Thermo Fisher). Isolated ovaries were transferred into well inserts (PET membrane ThinCert, 0.4 μm-pore size; Greiner bio-one) in 24-well plates (Tissue culture treated, cell culture plates; Costar). 200-300 μL of culture medium was added to the well below the insert and up to two ovaries were placed on the membrane of each insert. The culture medium was supplemented with different concentrations of the tested compounds; bpV(HOpic) (Sigma-Aldrich), Temsirolimus (Sigma-Aldrich), Ketotifen (Sigma-Aldrich), 3PO (Sigma-Aldrich), Dorsomorphin (Sigma-Aldrich), AICAR (Sigma-Aldrich), NCG (Sigma-Aldrich), and Dyphylline (Cayman Chemical). Up to six wells in the 24-well plate were used for inserts. Sterile dH2O was added to the rest of the wells to ensure humidity and reduce evaporation. The ovaries were cultured at 37° C., 5% CO2 for four days. 150 μL of medium was replaced every other day with fresh culture medium.
Ovaries kept in organ culture for four days were fixed for 24 hours in 4% paraformaldehyde solution at 4° C. After fixation, ovaries were dehydrated in ethanol series using 70%, 96% and 99.9% ethanol. Xylene was used as clearing agent before the ovaries were infiltrated in paraffin wax. 5 μm-sections of samples in paraffin were cut using a microtome (Cut 6062, SLEE medical, Germany). Paraffin sections were mounted on glass slides, paraffin was melted at 60° C., and the samples were stained with hematoxylin and eosin (using standard protocols).
The samples were deparaffinized by incubating in xylene for 2×15 min. and subsequently rehydrated in series of ethanol; 3×2 min. in 99.9% ethanol, 2 min. in 96% ethanol, and 2 min. in 70% ethanol. The samples were then rinsed in dH2O, stained in hematoxylin for 40 sec., rinsed in dH2O for 5 min., and stained in eosin for 46 sec. The samples were dehydrated in ethanol: 2×2 min. in 96% ethanol, 2×2 min in 99.9% ethanol, and finally cleared up in xylene for at least 30 min before mounting the samples using Eukitt mounting medium (Sigma-Aldrich) and cover glass.
The number of follicles at each developmental stage was counted using an inverted research microscope (DM14000B, Leica Microsystems, Germany). The follicles of every 3rd to 4th section of each ovary were counted and the distribution of follicles in the different stages in percentage was determined.

The text below walks through data of patent US11666561B2, “Compounds for use in regulating follicle maturation” (AARHUS UNIVERSITET, priority 2017, dated 2023).

Turning to `C=CC(=O)Nc1cc(Nc2nccc(-c3cn(C)c4ccccc34)n2)c(OC)cc1N(C)CCN(C)C` [Osimertinib, N-[2-[2-(dimethylamino)ethyl-methylamino]-4-methoxy-5-[[4-(1-methylindol-3-yl)pyrimidin-2-yl]amino]phenyl]prop-2-enamide], the Effect result runs as follows: (Table 1) “promotes”; (Table 2) “promotes”.
On to `C=CCN(/C=C1/C(=O)O[C@H](COC)[C@@]2(C)C1=C(O)C(=O)C1=C2[C@H](OC(C)=O)C[C@]2(C)C(=O)CC[C@@H]12)CC=C` [PX-866], for which the Effect result reads like this: (Table 1) “promotes”; (Table 2) “promotes”.
Turning to `COc1cc(C(=O)O)ccc1NC(=O)[C@@H]1N[C@@H](CC(C)(C)C)[C@](C#N)(c2ccc(Cl)cc2F)[C@H]1c1cccc(Cl)c1F` [Idasanutlin, 4-{[(3S,4R,5S)-3-(3-Chloro-2-fluorophenyl)-4-(4-chloro-2-fluorophenyl)-4-cyano-5-(2,2-dimethylpropyl)-D-prolyl]amino}-3-methoxybenzoic acid], the Effect result (Table 1) is reported as “promotes” and the Effect result (Table 2) is given as “promotes”.
For `CC(C)c1cc(CNc2nc(Nc3cc(C4CC4)[nH]n3)cc(N3CCN(C)CC3)n2)on1` [XL228, 4-N-(5-cyclopropyl-1H-pyrazol-3-yl)-6-(4-methylpiperazin-1-yl)-2-N-[(3-propan-2-yl-1,2-oxazol-5-yl)methyl]pyrimidine-2,4-diamine], the Effect result was “promotes” (Table 1) and “promotes” (Table 2).
For the molecule `CCN1[C@@H](C(=O)NC23CCC(C(=O)O)(CC2)CC3)[C@H](c2cccc(Cl)c2F)[C@]2(C(=O)Nc3cc(Cl)ccc32)C12CCCCC2` [APG-115], the Effect entry (Table 1) is reported as “promotes” and the Effect result (Table 2) is “promotes”.
Take `COc1cc2c(cc1OC(C)C)[C@H](c1ccc(Cl)cc1)N(c1ccc(N(C)CC3CCC(N4CCN(C)C(=O)C4)CC3)cc1)C(=O)C2` (stereo partly drawn) [CGM097, (1S)-1-(4-chlorophenyl)-6-methoxy-2-[4-[methyl-[[4-(4-methyl-3-oxopiperazin-1-yl)cyclohexyl]methyl]amino]phenyl]-7-propan-2-yloxy-1,4-dihydroisoquinolin-3-one]: the Effect entry is listed as “promotes” (Table 1) and “promotes” (Table 2).
Regarding `Nc1cc(C(F)(F)F)c(-c2cc(N3CCOCC3)nc(N3CCOCC3)n2)cn1` [Buparlisib, 5-(2,6-dimorpholinopyrimidin-4-yl)-4-(trifluoromethyl)pyridin-2-amine], the Effect entry reads like this: (Table 1) “promotes”; (Table 2) “promotes”.

B1: BI 836845: humanised IgG1 monoclonal antibody that binds to and neutralises IGF-1 and IGF-2 (antibody, chains of the INN, looked up, V domains shown)
VH: QVELVESGGGLVQPGGSLRLSCAASGFTFTSYWMSWVRQAPGKGLELVSSITSYGSFTYYADSVKGRFTISRDNSKNTLYLQMNSLRAEDTAVYYCARNMYTHFDSWGQGTLVTVSS
VL: DIVLTQPPSVSGAPGQRVTISCSGSSSNIGSNSVSWYQQLPGTAPKLLIYDNSKRPSGVPDRFSGSKSGTSASLAITGLQSEDEADYYCQSRDTYGYYWVFGGGTKLTVL
For B1, the Effect result is, setting by setting: (Table 1) “promotes”; (Table 2) “promotes”.

B2: MM-141: tetravalent bispecific antibody targeting IGF-1 receptor and ERBB3 (antibody, chains of the INN, looked up, V domains shown)
VH: EVQLLQSGGGLVQPGGSLRLSCAASGFMFSRYPMHWVRQAPGKGLEWVGSISGSGGATPYADSVKGRFTISRDNSKNTLYLQMNSLRAEDTAVYYCAKDFYQILTGNAFDYWGQGTTVTVSS
VL: DIQMTQSPSSLSASLGDRVTITCRASQGISSYLAWYQQKPGKAPKLLIYAKSTLQSGVPSRFSGSGSGTDFTLTISSLQPEDSATYYCQQYWTFPLTFGGGTKVEIK
VH2: QVQLVQSGGGLVQPGGSLRLSCAASGFTFDDYAMHWVRQAPGKGLEWVAGISWDSGSTGYADSVKGRFTISRDNAKNSLYLQMNSLRAEDTALYYCARDLGAYQWVEGFDYWGQGTLVTVSS
VL2: SYELTQDPAVSVALGQTVRITCQGDSLRSYYASWYQQKPGQAPVLVIYGKNNRPSGIPDRFSGSTSGNSASLTITGAQAEDEADYYCNSRDSPGNQWVFGGGTKVTVL
As to B2, the Effect entry (Table 1) is reported as “promotes” and the Effect result (Table 2) is “promotes”.
